Data published in patent US10456446B2, “Use of human small leucine zipper protein in osteogenesis procedure” (Korea University Research and Business Foundation, priority 2013, dated 2019).
Ends that are not written are not given here. d = 2'-deoxy (DNA)

T1: PPARγ2 (Homo sapiens, UniProt P37231)
T1 construct: expressed in transfected cells; host or cells: 293T
T1 sequence (P37231 1-505): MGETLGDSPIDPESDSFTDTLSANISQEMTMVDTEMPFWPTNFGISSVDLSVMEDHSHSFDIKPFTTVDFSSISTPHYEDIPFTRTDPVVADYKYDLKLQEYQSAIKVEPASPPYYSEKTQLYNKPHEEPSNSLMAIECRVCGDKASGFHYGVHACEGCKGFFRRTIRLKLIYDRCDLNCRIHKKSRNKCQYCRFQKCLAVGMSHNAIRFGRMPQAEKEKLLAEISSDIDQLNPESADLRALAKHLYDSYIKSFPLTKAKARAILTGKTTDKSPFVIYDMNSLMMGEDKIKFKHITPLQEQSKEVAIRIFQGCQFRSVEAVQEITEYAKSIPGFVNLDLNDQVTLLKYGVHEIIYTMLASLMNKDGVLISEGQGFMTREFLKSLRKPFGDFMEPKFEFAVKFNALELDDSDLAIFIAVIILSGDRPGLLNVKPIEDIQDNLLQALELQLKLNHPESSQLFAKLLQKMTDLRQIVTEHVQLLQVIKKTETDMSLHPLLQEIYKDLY

B1: C domains of sLZIP: C-terminal deletion mutant of sLZIP (229-354) (protein)
chain: MYSSDTRGSLPAEHGVLSRQLRALPSEDPYQLELPALQSEVPKDSTHQWLDGSDCVLQAPGNTSCLLHYMPQAPSAEPPLEWPFPDLFSEPLCRGPILPLQANLTRKGGWLPTGSPSVILQDRYSG
modifications: left off: a dimerising Fc or GST

Legend:
PPARγ2 [1] = target: T1, PPARγ2; assay: PPARγ2 transcriptional activity, FABP4-Luc luciferase reporter in transfected 293T cells; type: cell-based; conditions: for sLZIP-mediated PPARγ2 transcriptional activity: 100 nM si-RNA, with or without 10 nM RZD
Protocol: C3H10T1/2 and 293T cells were plated in a 12-well culture dish at a density of 2×10^5 cells/well and incubated for 24 hours. Then, according to instructions of the manufacturer, the cells were transfected with a 0.2 μg of reporter genes and 0.1 to 0.5 μg of a laboratory plasmid using Lipofectamine 2000 or Genefectine. After 24 hours, the cells were cultured in a serum-free DMEM with or without 10 nM of rosiglitazone. siRNAs were prepared using sLZIP and HDAC target sequences (Table 1). For an RNA interference experiment, according to instructions of the manufacturer, the cells were transfected with scrambled control group RNA and appropriate siRNAs using Lipofectamine 2000. Human MSC and C3H10T/1/2 cells were infected with an adenovirus vector containing cDNA of human sLZIP or an empty vector. The infected medium was exchanged with a fresh medium after two hours.
Appropriately transfected cells were washed with cold PBS twice, and a reporter lysis buffer (Promega) was used and lysed in a culture dish. Luciferase analysis was performed using a luciferase analysis system (Promega Corporation, Madison, Wis.). A luciferase activity was recorded in Luminometer 20/20^n (Turner BioSystems, Sunnyvale, Calif.) according to instructions of the manufacturer. The luciferase activity was normalized to a β-galactosidase activity. For β-galactosidase analysis, CMV-β-galactosidase was transfected with luciferase reporter genes. All pieces of data were represented as mean±standard deviation of the results from at least three independent experiments.
In order to examine an effect of sLZIP on the transcriptional activity of PPARγ2, 293T cells were temporarily transfected with PPARγ2 (0.5 μg), β-galactosidase (0.1 μg), FABP4-Luc reporter genes (0.2 μg) and sLZIP at different contents (0.1 to 0.5 μg). After the transfection, the cells were stimulated with or without 10 nM of rosiglitazone (RZD) (FIG. 1A), pioglitazone (PZD) (FIG. 1B), and troglitazone (TZD) (FIG. 1C). A relative luciferase activity was analyzed with or without cell ligand treatment 24 hours after transfection. Also, the 293T cells were transiently transfected with si-sLZIP at different contents (50 and 100 nM), and the cells were treated or not treated with RZD (FIG. 1D). FABP4-Luc stable C3H10T1/2 cells were infected with a sLZIP-expressing adenovirus, and then differentiated into adipocytes for 4 days (FIG. 1E). A luciferase activity was normalized to a β-galactosidase activity and represented as a relative activity (fold change). All experiments were repeated three times, and bars in the graph represent mean±standard deviation. *, P<0.05; **, P<0.01
For this purpose, 293T cells were transiently transfected with PPARγ2 (0.5 μg), β-galactosidase (0.1 μg), FABP4-Luc reporter genes (0.2 μg) and sLZIP (0.1 μg). After the transfection, the cells were stimulated with or without 10 nM of RZD and 10 nM of TSA (FIG. 4A). A promoter activity was measured according to luciferase analysis. In the 293T cells, FABP4-Luc reporter genes, sLZIP, PPAR, β-galactosidase, and 100 nM of si-RNAs and HDAC1, 2, 3 and 8 for a control group were expressed. After the transfection, the cells were stimulated with or without 10 nM of RZD, and a promoter activity was measured (FIG. 4B). 293T cells were temporarily transfected with FABP4-Luc reporter genes, PPARγ2, β-galactosidase, HDAC3 (0.5 μg) and sLZIP (0.1 μg). After the transfection, the cells were stimulated with or without 10 nM of RZD, and luciferase analysis was performed (FIG. 4C). A luciferase activity was normalized to a β-galactosidase activity and represented as a relative intensity (fold change). All experiments were repeated three times, and bars in the graph represent mean±standard deviation. GFP-sLZIP expression constructs were expressed in C3H10T1/2 cells, rabbit anti-HDAC3 antibodies and Texas Red-labeled anti-rabbit antibodies were used and analysis was performed under a fluorescence microscope. The nucleus was stained with DAPI (FIG. 4D). […]

PPARγ2 [2] = assay: GST / His pull-down and immunoprecipitation of sLZIP with PPARγ2; type: binding; conditions: GST pull-down, transfected 293T cells
Protocol: 293T cells were obtained and washed with cold PBS. The cells were re-suspended in an IP lysis buffer [25 mM of Tris-HCl (pH 7.4), 150 mM of NaCl, 1 mM of EDTA, 1% NP-40 and 5% glycerol, and a protease inhibitor]. A suspension was centrifuged at 16,000×g for 20 minutes at 4° C. Supernatants were collected and incubated with 0.5 μg of appropriate antibodies and 25 μl of protein A/G-agarose or a GST Sepharose 4B bead for 24 hours at 4° C. A protein complex was centrifuged at 1,000×g with a cold IP lysis buffer for 1 minute and washed five times. The final pellet was re-suspended in 50 μl of an SDS-sample buffer containing 5% β-mercaptoethanol and heated for 10 minutes at 100° C. A protein sample was isolated in SDS-PAGE (8 to 10%) and transferred to nitrocellulose membranes. Co-precipitated proteins were detected according to western blotting using specific antibodies.
In order to examine whether the transcriptional activity of PPARγ2 is regulated by interaction with sLZIP, interaction between sLZIP and PPARγ2 was examined. For this purpose, 293T cells were transfected with GST-sLZIP and Myc-PPARγ2. Cell lysates were obtained and GST pull-down analysis was performed using a glutathione 4B bead. A protein complex was analyzed in SDS-PAGE and then immunoblotted with specific antibodies (FIG. 2A). The 293T cells were transfected with GST-PPARγ2 and Flag-sLZIP, and identified according to GST-pull-down analysis (FIG. 2B). PPARγ2 was translated in vitro by a TNT translation system (Promega). His-sLZIP proteins were expressed in BL21 cells using an IPTG-inducement system. Purified His-sLZIP proteins were subjected to His pull-down analysis. Proteins bound to the bead were analyzed in SDS-PAGE, and then immunoblotted with anti-PPARγ2 and anti-His antibodies (FIG. 2C). GFP-PPARγ2 and Flag-sLZIP constructs were expressed in C3H10T1/2 cells, and analyzed using mouse anti-Flag and Texas Red-labeled anti-mouse antibodies under a fluorescence microscope. The nucleus was stained with DAPI (FIG. 2D).
Activation of many nuclear receptors depends on a supplement of coactivators. Therefore, a domain of sLZIP necessary for binding with PPARγ2 was examined. For this purpose, 293T cells were transfected with GST-full length sLZIP (1-354), N-terminal deletion mutant sLZIP (1-228), C-terminal deletion mutant sLZIP (229-354), CC-terminal deletion mutant sLZIP (297-354) and PPARγ2. Cell lysates were obtained and GST pull-down analysis was performed using a glutathione 4B bead. A protein complex was analyzed in SDS-PAGE, and then immunoblotted with specific antibodies (FIG. 3A). 293T cells were transfected with Flag-full length PPARγ2, full length PPARγ2, N-terminal deletion mutant PPARγ2 (1-310), C-terminal deletion mutants PPARγ2 (139-505) and GST-sLZIP. Cell lysates were obtained and GST pull-down analysis was performed. A protein complex was analyzed in SDS-PAGE, and then immunoblotted with anti-GST and anti-Flag antibodies (FIG. 3B).
For this purpose, 293T cells were transfected with GST-PPARγ2 and Flag-sLZIP and were treated or not treated with 10 nM of RZD for 24 hours. Cell lysates were obtained and GST pull-down analysis (FIG. 5A) and immunoprecipitation (FIG. 5B) were performed using a glutathione 4B bead. A protein complex was analyzed in SDS-PAGE, and immunoblotted with anti-GST and anti-Flag antibodies. GST-PARγ2 and Flag-sLZIP were expressed in the 293T cells, and the cells were treated with 10 nM of RZD according to time of day. The cell lysates were GST pull-down analyzed (FIG. 5C). 293T cells were transfected with GST-HDAC3 and Flag-sLZIP, and treated or not treated with 10 nM of RZD for 24 hours. The cell lysates were GST pull-down analyzed (FIG. 5D). Flag-sLZIP was expressed in the 293T cells, and the cells were treated with 10 nM of RZD for 24 hours. Immunoprecipitation analysis of the cell lysates was performed using anti-NCoR1 antibodies. […]

| Molecule | sLZIP-mediated PPARγ2 transcriptional activity (PPARγ2 [1]) | other results |
| --- | --- | --- |
| HDAC3: siRNA used to knock down HDAC3, SEQ ID NO: 11 and 12 (chain 1 GCCGGUUAUCAACCAGGUA; chain 2 UACCUGGUUGAUAACCGGC; 3' dTdT, sugars by position and backbone not given here) [reference compound] | significantly increased |  |
| CC domains of sLZIP: CC-terminal deletion mutant of sLZIP (297-354), contains proline-rich region (YMPQAPSAEPPLEWPFPDLFSEPLCRGPILPLQANLTRKGGWLPTGSPSVILQDRYSG; also: fused to dimerising Fc or GST) |  | interaction with PPARγ2 (PPARγ2 [2]): interacted with PPARγ2 |
| siRNA for HDAC1: siRNA against HDAC1, SEQ ID NO: 7 and 8 (chain 1 CGACUGUUUGAGAACCUUA; chain 2 UAAGGUUCUCAAACAGUCGCU; 3' dTdT, sugars by position and backbone not given here) [reference compound] | not involved in sLZIP-mediated PPARγ2 regulation |  |
| siRNA for HDAC2: siRNA against HDAC2, SEQ ID NO: 9 and 10 (chain 1 GGUCAAUAAGACCAGAUAA; chain 2 UUAUCUGGUCUUAUUGACCG; 3' dTdT, sugars by position and backbone not given here) [reference compound] | not involved in sLZIP-mediated PPARγ2 regulation |  |
| si-sLZIP: siRNA for sLZIP, SEQ ID NO: 5 and 6 (+dTdT) (chain 1 GGACCCAGAUGACUCCACAGCAUAU; chain 2 AUAUGCUGUGGAGUCAUCUGGGUCC; 3' dTdT, sugars by position and backbone not given here) [reference compound] |  | transcriptional activity of PPARγ2 (relative luciferase activity) (PPARγ2 [1]; si-sLZIP 50 and 100 nM, treated or not treated with RZD): increased the transcriptional activity of PPARγ2 |
| siRNA for HDAC8: siRNA against HDAC8, SEQ ID NO: 13 and 14 (chain 1 CAUUCAGGAUGGCAUACAA; chain 2 UUGUAUGCCAUCCUGAAUGGG; 3' dTdT, sugars by position and backbone not given here) [reference compound] | not involved in sLZIP-mediated PPARγ2 regulation |  |
| B1 |  | interaction with PPARγ2 (PPARγ2 [2]): interacted with PPARγ2 |
